Laboratory results reported in patent US20100273814A1, “((PHENYL)IMIDAZOLYL)METHYLHETEROARYL COMPOUNDS” (priority 2007, published 2010).
Values belong to the molecule of their own block, whether it stands above or below them.

How the values were obtained:
Type in all cases: cell-based
alpha2A receptor = target: T1, alpha2A receptor (Homo sapiens, UniProt P08913); assay: Receptor Selection and Amplification Technology (RSAT) assay, alpha2A; settings: RSAT; for EC50: transfected NIH-3T3 cells, value outside brackets, read-out: Alpha 2A EC50 (potency); for Alpha 2A intrinsic activity (efficacy): ratio of maximal effect to that of standard full agonist brimonidine (UK14304), value in brackets
T1 construct: expressed in transfected cells; host or cells: NIH-3T3 cells
T1 sequence (P08913 1-465): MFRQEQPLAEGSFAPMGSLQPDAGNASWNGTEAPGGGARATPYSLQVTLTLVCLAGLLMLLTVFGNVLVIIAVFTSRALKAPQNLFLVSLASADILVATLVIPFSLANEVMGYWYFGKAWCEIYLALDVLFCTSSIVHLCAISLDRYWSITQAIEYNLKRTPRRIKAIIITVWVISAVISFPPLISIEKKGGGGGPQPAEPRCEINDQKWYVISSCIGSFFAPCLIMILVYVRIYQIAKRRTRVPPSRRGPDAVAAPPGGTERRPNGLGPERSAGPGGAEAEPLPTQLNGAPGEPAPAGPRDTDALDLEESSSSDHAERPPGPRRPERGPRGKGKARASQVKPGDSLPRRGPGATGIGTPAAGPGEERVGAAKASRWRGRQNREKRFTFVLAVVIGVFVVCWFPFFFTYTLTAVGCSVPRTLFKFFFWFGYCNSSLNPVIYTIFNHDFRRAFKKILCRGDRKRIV
Protocol: (§1) Receptor Selection and Amplification Technology (RSAT) Assay
(§2) The RSAT assay measures a receptor-mediated loss of contact inhibition that results in selective proliferation of receptor-containing cells in a mixed population of confluent cells. The increase in cell number is assessed with an appropriate transfected marker gene such as β-galactosidase, the activity of which can be easily measured in a 96-well format. Receptors that activate the G protein, Gq, elicit this response. Alpha2 receptors, which normally couple to Gi, activate the RSAT response when coexpressed with a hybrid Gq protein that has a Gi receptor recognition domain, called Gq/i5.
(§3) NIH-3T3 cells are plated at a density of 2×10^6 cells in 15 cm dishes and maintained in Dulbecco's modified Eagle's medium supplemented with 10% calf serum. One day later, cells are cotransfected by calcium phosphate precipitation with mammalian expression plasmids encoding p-SV-β-galactosidase (5-10 μg), receptor (1-2 μg) and G protein (1-2 μg). 40 μg salmon sperm DNA may also be included in the transfection mixture. Fresh media is added on the following day and 1-2 days later, cells are harvested and frozen in 50 assay aliquots. Cells are thawed and […] added to 100 aliquots of various concentrations of drugs in triplicate in 96-well dishes. Incubations continue 72-96 hr at 37° C. After washing with phosphate-buffered saline, β-galactosidase enzyme activity is determined by adding 200 μl of the chromogenic substrate (consisting of 3.5 mM o-nitrophenyl-β-D-galactopyranoside and 0.5% nonidet P-40 in phosphate buffered saline), incubating overnight at 30° C. and measuring optical density at 420 nm. The absorbance is a measure of enzyme activity, which depends on cell number and reflects a receptor-mediated cell proliferation. The efficacy or intrinsic activity is calculated as a ratio of the maximal effect of the drug to the maximal effect of a standard full agonist for each receptor subtype. Brimonidine, also called UK14304, the chemical structure of which is shown below, is used as the standard agonist for the alpha2A, alpha2B and alpha2C receptors. The EC50 is the concentration at which the drug effect is half of its maximal effect.
(§4) EC50 values are nanomolar. ND stands for “not determinable” at concentrations less than 10 micromolar. IA stands for “intrinsic activity.”

alpha2B receptor = target: T2, alpha2B receptor (Homo sapiens, UniProt P18089); assay: Receptor Selection and Amplification Technology (RSAT) assay, alpha2B; settings: RSAT; for EC50: transfected NIH-3T3 cells, value outside brackets, read-out: Alpha 2B EC50 (potency); for Alpha 2B intrinsic activity (efficacy): ratio of maximal effect to that of standard full agonist brimonidine (UK14304), value in brackets
T2 construct: expressed in transfected cells; host or cells: NIH-3T3 cells
T2 sequence (P18089 1-450): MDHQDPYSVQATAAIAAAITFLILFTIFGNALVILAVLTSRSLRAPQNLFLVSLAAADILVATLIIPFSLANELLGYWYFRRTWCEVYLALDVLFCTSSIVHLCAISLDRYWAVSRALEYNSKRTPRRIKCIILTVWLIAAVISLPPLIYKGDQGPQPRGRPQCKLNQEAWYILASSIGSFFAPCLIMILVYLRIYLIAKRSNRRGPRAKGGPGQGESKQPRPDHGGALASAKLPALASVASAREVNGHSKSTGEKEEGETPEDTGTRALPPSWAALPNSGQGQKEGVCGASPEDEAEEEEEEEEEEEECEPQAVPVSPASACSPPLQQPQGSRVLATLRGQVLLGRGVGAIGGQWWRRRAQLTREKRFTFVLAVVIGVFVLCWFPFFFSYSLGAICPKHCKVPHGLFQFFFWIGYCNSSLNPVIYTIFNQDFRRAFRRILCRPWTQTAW
Protocol: as §1, §2, §3, §4

alpha2C receptor = target: T3, alpha2C receptor (Homo sapiens, UniProt P18825); assay: Receptor Selection and Amplification Technology (RSAT) assay, alpha2C; settings: RSAT; for EC50: transfected NIH-3T3 cells, value outside brackets, read-out: Alpha 2C EC50 (potency); for Alpha 2C intrinsic activity (efficacy): ratio of maximal effect to that of standard full agonist brimonidine (UK14304), value in brackets
T3 construct: expressed in transfected cells; host or cells: NIH-3T3 cells
T3 sequence (P18825 1-462): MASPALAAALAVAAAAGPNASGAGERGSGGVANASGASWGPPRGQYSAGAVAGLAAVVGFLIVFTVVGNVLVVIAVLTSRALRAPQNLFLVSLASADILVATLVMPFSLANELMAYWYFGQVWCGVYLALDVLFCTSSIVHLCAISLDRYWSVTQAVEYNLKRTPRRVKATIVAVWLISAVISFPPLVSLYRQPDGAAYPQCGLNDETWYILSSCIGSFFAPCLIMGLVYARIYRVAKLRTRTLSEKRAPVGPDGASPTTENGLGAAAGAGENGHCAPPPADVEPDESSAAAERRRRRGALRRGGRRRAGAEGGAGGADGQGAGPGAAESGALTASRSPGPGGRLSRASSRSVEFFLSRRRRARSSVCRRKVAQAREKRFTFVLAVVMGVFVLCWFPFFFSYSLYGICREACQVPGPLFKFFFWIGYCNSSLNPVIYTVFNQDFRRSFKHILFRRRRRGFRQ
Protocol: as §1, §2, §3, §4

Structure (SMILES): Fc1c(Cl)cccc1C(c1cccnc1)c1cnc[nH]1 (stereo not drawn) [3-((3-chloro-2-fluorophenyl)(1H-imidazol-5-yl)methyl)pyridine]
- EC50 (alpha2A receptor): > 10 µM
- Alpha 2A intrinsic activity (efficacy) (alpha2A receptor): 0.28
- EC50 (alpha2B receptor): 0.0052 µM
- Alpha 2B intrinsic activity (efficacy) (alpha2B receptor): 1.34
- EC50 (alpha2C receptor): 0.064 µM
- Alpha 2C intrinsic activity (efficacy) (alpha2C receptor): 0.55

Structure (SMILES): Fc1cccc(C(c2cccnc2)c2c[nH]cn2)c1 (stereo not drawn) [3-((3-fluorophenyl)(1H-imidazol-5-yl)methyl)pyridine]
- EC50 (alpha2A receptor): > 10 µM
- Alpha 2A intrinsic activity (efficacy) (alpha2A receptor): 0.05
- EC50 (alpha2B receptor): 0.222 µM
- Alpha 2B intrinsic activity (efficacy) (alpha2B receptor): 1.01
- EC50 (alpha2C receptor): 3.64 µM
- Alpha 2C intrinsic activity (efficacy) (alpha2C receptor): 0.17

Structure (SMILES): c1ccc(C(c2cccnc2)c2c[nH]cn2)cc1 (stereo not drawn) [3-((phenyl)(1H-imidazol-5-yl)methyl)pyridine]
- EC50 (alpha2A receptor): > 10 µM
- Alpha 2A intrinsic activity (efficacy) (alpha2A receptor): 0.11
- EC50 (alpha2B receptor): 0.19 µM
- Alpha 2B intrinsic activity (efficacy) (alpha2B receptor): 0.72
- EC50 (alpha2C receptor): > 10 µM
- Alpha 2C intrinsic activity (efficacy) (alpha2C receptor): 0.16

Structure (SMILES): Clc1cccc(C(c2ccncc2)c2c[nH]cn2)c1Cl (stereo not drawn) [4-((2,3-dichlorophenyl)(1H-imidazol-5-yl)methyl)pyridine]
- EC50 (alpha2A receptor): > 10 µM
- Alpha 2A intrinsic activity (efficacy) (alpha2A receptor): 0.18
- EC50 (alpha2B receptor): 0.0032 µM
- Alpha 2B intrinsic activity (efficacy) (alpha2B receptor): 1.31
- EC50 (alpha2C receptor): 0.097 µM
- Alpha 2C intrinsic activity (efficacy) (alpha2C receptor): 0.72

Structure (SMILES): Fc1cccc(C(c2ccncc2)c2c[nH]cn2)c1F (stereo not drawn) [4-((2,3-difluorophenyl)(1H-imidazol-5-yl)methyl)pyridine]
- EC50 (alpha2A receptor): > 10 µM
- Alpha 2A intrinsic activity (efficacy) (alpha2A receptor): 0.01
- EC50 (alpha2B receptor): 0.837 µM
- Alpha 2B intrinsic activity (efficacy) (alpha2B receptor): 0.70
- EC50 (alpha2C receptor): 2.49 µM
- Alpha 2C intrinsic activity (efficacy) (alpha2C receptor): 1.02

Structure (SMILES): Cc1cccc(C(c2ccncc2)c2c[nH]cn2)c1C (stereo not drawn) [4-((2,3-dimethylphenyl)(1H-imidazol-5-yl)methyl)pyridine]
- EC50 (alpha2A receptor): 1.51 µM
- Alpha 2A intrinsic activity (efficacy) (alpha2A receptor): 0.32
- EC50 (alpha2B receptor): 0.0044 µM
- Alpha 2B intrinsic activity (efficacy) (alpha2B receptor): 1.07
- EC50 (alpha2C receptor): 0.605 µM
- Alpha 2C intrinsic activity (efficacy) (alpha2C receptor): 0.49

- EC50 (alpha2A receptor): > 10 µM
- Alpha 2A intrinsic activity (efficacy) (alpha2A receptor): 0.14
- EC50 (alpha2B receptor): 0.045 µM
- Alpha 2B intrinsic activity (efficacy) (alpha2B receptor): 1.29
- EC50 (alpha2C receptor): > 10 µM
- Alpha 2C intrinsic activity (efficacy) (alpha2C receptor): 0.29
Structure (SMILES): Fc1c(C(c2ccncc2)c2c[nH]cn2)cccc1C(F)(F)F (stereo not drawn) [4-((2-fluoro-3-(trifluoromethyl)phenyl)(1H-imidazol-5-yl)methyl)pyridine]

Structure (SMILES): Fc1ccccc1C(c1ccncc1)c1c[nH]cn1 (stereo not drawn) [4-((2-fluorophenyl)(1H-imidazol-5-yl)methyl)pyridine]
- EC50 (alpha2A receptor): > 10 µM
- Alpha 2A intrinsic activity (efficacy) (alpha2A receptor): 0.04
- EC50 (alpha2B receptor): 0.35 µM
- Alpha 2B intrinsic activity (efficacy) (alpha2B receptor): 0.78
- EC50 (alpha2C receptor): 0.365 µM
- Alpha 2C intrinsic activity (efficacy) (alpha2C receptor): 0.48

Structure (SMILES): Cc1ccccc1C(c1ccncc1)c1c[nH]cn1 (stereo not drawn) [4-((2-methylphenyl)(1H-imidazol-5-yl)methyl)pyridine]
- EC50 (alpha2A receptor): > 10 µM
- Alpha 2A intrinsic activity (efficacy) (alpha2A receptor): 0.06
- EC50 (alpha2B receptor): 0.063 µM
- Alpha 2B intrinsic activity (efficacy) (alpha2B receptor): 0.82
- EC50 (alpha2C receptor): 0.265 µM
- Alpha 2C intrinsic activity (efficacy) (alpha2C receptor): 1.08

Structure (SMILES): Fc1c(Cl)cccc1C(c1ccncc1)c1cnc[nH]1 (stereo not drawn) [4-((3-chloro-2-fluorophenyl)(1H-imidazol-5-yl)methyl)pyridine]
- EC50 (alpha2A receptor): > 10 µM
- Alpha 2A intrinsic activity (efficacy) (alpha2A receptor): 0.09
- EC50 (alpha2B receptor): 0.04 µM
- Alpha 2B intrinsic activity (efficacy) (alpha2B receptor): 1.02
- EC50 (alpha2C receptor): 0.34 µM
- Alpha 2C intrinsic activity (efficacy) (alpha2C receptor): 0.60

Structure (SMILES): Cc1c(Cl)cccc1C(c1ccncc1)c1c[nH]cn1 (stereo not drawn) [4-((3-chloro-2-methylphenyl)(1H-imidazol-5-yl)methyl)pyridine]
- EC50 (alpha2A receptor): > 10 µM
- Alpha 2A intrinsic activity (efficacy) (alpha2A receptor): 0.11
- EC50 (alpha2B receptor): 0.0103 µM
- Alpha 2B intrinsic activity (efficacy) (alpha2B receptor): 1.10
- EC50 (alpha2C receptor): 0.083 µM
- Alpha 2C intrinsic activity (efficacy) (alpha2C receptor): 0.46

Structure (SMILES): Cc1c(F)cccc1C(c1ccncc1)c1c[nH]cn1 (stereo not drawn) [4-((3-fluoro-2-methylphenyl)(1H-imidazol-5-yl)methyl)pyridine]
- EC50 (alpha2A receptor): > 10 µM
- Alpha 2A intrinsic activity (efficacy) (alpha2A receptor): 0.03
- EC50 (alpha2B receptor): 0.072 µM
- Alpha 2B intrinsic activity (efficacy) (alpha2B receptor): 1.17
- EC50 (alpha2C receptor): > 10 µM
- Alpha 2C intrinsic activity (efficacy) (alpha2C receptor): 0.27

Structure (SMILES): Fc1cccc(C(c2ccncc2)c2c[nH]cn2)c1 (stereo not drawn) [4-((3-fluorophenyl)(1H-imidazol-5-yl)methyl)pyridine]
- EC50 (alpha2A receptor): > 10 µM
- Alpha 2A intrinsic activity (efficacy) (alpha2A receptor): 0.04
- EC50 (alpha2B receptor): 0.562 µM
- Alpha 2B intrinsic activity (efficacy) (alpha2B receptor): 0.93
- EC50 (alpha2C receptor): > 10 µM
- Alpha 2C intrinsic activity (efficacy) (alpha2C receptor): 0.23

Structure (SMILES): c1ccc(C(c2ccncc2)c2c[nH]cn2)cc1 (stereo not drawn) [4-((phenyl)(1H-imidazol-5-yl)methyl)pyridine]
- EC50 (alpha2A receptor): > 10 µM
- Alpha 2A intrinsic activity (efficacy) (alpha2A receptor): 0.10
- EC50 (alpha2B receptor): 0.309 µM
- Alpha 2B intrinsic activity (efficacy) (alpha2B receptor): 0.69
- EC50 (alpha2C receptor): > 10 µM
- Alpha 2C intrinsic activity (efficacy) (alpha2C receptor): 0.14
